Publication PMC9776540, “Therapeutic Potential of a Water-Soluble Silver-Diclofenac Coordination Polymer on 3D Pancreatic Cancer Spheroids” (Journal of Medicinal Chemistry, 2022)

How the values were obtained:
MRC5 = assay: MTT cytotoxicity assay (IC50); assay type: cell-based, human; conditions: Homo sapiens, MRC5, 72 h
Experimental: (§1) MCF7 cell line (human breast adenocarcinoma, morphology: epithelial-like, ATCC: HTB-22), A549 cell […]
(§2) keratinocyte, morphology: epidermal, CSL Cell Lines Service GmbH); were cultured in Dulbecco’s Modified Eagle’s Medium (DMEM, Corning) with phenol red, supplemented with 10% fetal bovine serum (FBS) and with 1% streptomycin/penicillin. […]
(§3) from metastatic site: brain, ATCC: HTB-81) and MCR-5 cell line (primary line of human pulmonary […]
(§4) 10% fetal bovine serum (FBS). Cultures were incubated at 37 °C under a humidified atmosphere containing 5% CO2. Cells were transferred using a solution containing 0.05% trypsin and 0.5 mM EDTA.
(§5) All media and other ingredients were purchased from ALAB, Poland.
(§6) Cytotoxicity was assessed by MTT assay performed according the protocols described elsewhere.S1 In brief, 1×10^4 cells per well, seeded in 96-well flat bottom microtiter plate, were incubated with the tested compounds (in the appropriate media) at various range of concentrations for 24 h. After that time, solutions of compounds were washed out, cells were washed three times with PBS and fresh medium was applied. After next 72 h cell viability was determined using the Hill equation (Origin 9.0) with regard to the untreated cells (control), where y0 – untreated cell control (which was set to 100% viability), y100 – a lysis control (where the cells were treated with 0.5% triton X-100 was set to 0% […]
(§7) [c] at which the viability of the cells reaches 50%, H – the Hill coefficient (describing cooperativity):
(§8) Each compound concentration was tested in five replicates and repeated at least three times.
(§9) Determined values of IC50 are given as mean + S.D. (Standard Deviation).
(§10) Cisplatin was tested as a reference anticancer drug. […]

DU-145 [1] = assay: MTT cytotoxicity assay (IC50); assay type: cell-based, human; conditions: Homo sapiens, DU-145, 72 h
Experimental: as §1, §2, §3, §4, §5, §6, §7, §8, §9, §10

A549 [2] = assay: MTT cytotoxicity assay (IC50); assay type: cell-based, human; conditions: Homo sapiens, A549, 72 h
Experimental: as §1, §2, §3, §4, §5, §6, §7, §8, §9, §10

PANC-1 [3] = assay: MTT cytotoxicity assay (IC50); assay type: cell-based, human; conditions: Homo sapiens, PANC-1, 72 h
Experimental: as §1, §2, §3, §4, §5, §6, §7, §8, §9, §10

HaCat [4] = assay: MTT cytotoxicity assay (IC50); assay type: cell-based, human; conditions: Homo sapiens, HaCaT, 72 h
Experimental: as §1, §2, §3, §4, §5, §6, §7, §8, §9, §10

MCF7 = assay: MTT cytotoxicity assay (IC50); assay type: cell-based, human; conditions: Homo sapiens, MCF7, 72 h
Experimental: as §1, §2, §3, §4, §5, §6, §7, §8, §9, §10

PANC-1 cells [5] = assay: Mitochondrial membrane potential, JC-10 assay; assay type: cell-based, human; conditions: PANC-1, 4 h, 1 at IC50, others at molar ratio 1:1:1
Experimental: As an important indicator of mitochondrial dysfunction, the variation in mitochondrial membrane potential was monitored by the JC-10 probe (Figure 6C) aiming to understand the importance of mitochondrial disorder during the cancer cell death induced by 1.
Detection of Mitochondrial Membrane Potential (Δψ)
Mitochondrial membrane potential (MMP) depletion was determined by JC-10 Assay (Life
Technologies, USA). […] After 24h
ciprofloxacin (10 µg/mL) as positive and negative control, respectively. After that, cells were incubated
for 4 h at standard condition (37 °C, 5% CO2). Then, they were washed twice with PBS buffer and
incubated with JC-10 for 1 h. Afterwards, emission was measured at two different excitation
wavelengths ( exc = 540 nm,  em = 570 nm) and ( exc = 485 nm,  em = 530 nm). Results are presented as
the intensity ratio of red to green emission (mean + S.D.).

PANC-1 cells [6] = conditions: PANC-1, 1 at IC50, others at molar ratio 1:1:1, 72 h after treatment
Experimental: as §1, §2, §3, §4
All media and other ingredients were purchased from ALAB, Poland. […]
Acridine Orange (OA) and Propidium Iodide PI Staining
AO is a nucleic acid-binding fluorophore that is cell membrane permeable and suitable for selective staining of nucleated living cells. PI is a nucleic acid-binding dye that is impermeable to live cells and suitable for staining dead or dying nucleated cells. All live, nucleated cells fluoresce green due to AO, and dead, nucleated cells are stained with both AO and PI and fluoresce red. For analysis of 1-induced

DU-145 [7] = assay: MTT survival test, surviving fraction (Table S3); assay type: cell-based, human
Experimental: (§11) 24, and 72 h. After each incubation time, the cells were washed with PBS. Then, fresh medium (supplemented with 10% FSB) was added, and the cells were incubated under standard conditions for another 24 h (6h + 24h, 24h + 24h, 72h + 24h). After this time, the MTT survival test was done. Surviving fraction given in % was estimated with relation to untreated cells. In the case of 6h + 24h and 24h + 24h approaches, the cells were seeded at 10 000 cells per well, while in the case of 72h + 24h at […]

A549 [8] = assay: MTT survival test, surviving fraction (Table S3); assay type: cell-based, human
Experimental: as §11

PANC-1 [9] = assay: MTT survival test, surviving fraction (Table S3); assay type: cell-based, human
Experimental: as §11

MCF-7 = assay: MTT survival test, surviving fraction (Table S3); assay type: cell-based, human
Experimental: as §11

HaCat [10] = assay: MTT survival test, surviving fraction (Table S3); assay type: cell-based, human
Experimental: as §11

pBR322 plasmid = assay: DNA strand break analysis, agarose gel electrophoresis; assay type: biochemical; conditions: pBR322, 24 h, even at high concentration (500 μM)
Experimental: Then, the interaction between DNA and diclofenac, PTA, or 1 was evaluated by the gel electrophoresis of pBR322 plasmid to determine an ability to cause double- and/or single-strand DNA damages (Figure 6D). The double-strand damage may result in the appearance of different forms of DNA (linear form III and relaxed form II), which can be quantified by densitometry analysis (Figure 6E).
DNA Strand Break Analysis
The ability of 1, PTA and diclofenac to induce single- or double-strand breaks in plasmid DNA was tested
with the pBR322 plasmid (c = 0.5 mg/mL). All compounds were dissolved in water (c = 1 µM-500 µM).
After 1 h incubation at 37 °C, the reaction mixtures (20 μL) were mixed with 3 μL of loading buffer
(bromophenol blue in 30% glycerol) and loaded on 1% agarose gels, containing EB, in TBE buffer (90
mM Tris–borate, 20 mM EDTA, pH = 8.0). Gel electrophoresis was performed at a constant voltage of
100 V (4 V/cm) for 60 min. The gel was photographed and processed with a Digital Imaging System
(Syngen Biotech). For the densitometric analysis the UltraQuant 6.0 program was used.

C1N2CN3CN1CP(C2)C3 [PTA, 1,3,5-triaza-7-phosphaadamantane]
IC50 (MRC5): 0.867 ± 0.0183 mM
IC50 (DU-145 [1]): 1.23 ± 0.0219 mM
IC50 (A549 [2]): 1.17 ± 0.0147 mM
IC50 (PANC-1 [3]): 1.29 ± 0.0526 mM
IC50 (HaCat [4]): 0.826 ± 0.00876 mM
IC50 (MCF7): 1.471 ± 0.0144 mM
change of mitochondrial membrane potential (570/530 nm ratio of JC-10 fluorescence intensity) (PANC-1 cells [5]): significant decrease
cytotoxicity seen by AO/PI staining (PANC-1 cells [6]): did not induce visible cytotoxicity
surviving fraction (DU-145 [7]; Du-145, 6h + 24h, dil. 10 000x (stocks: diclofenac 0.918, PTA 0.483, AgNO3 0.326 mg/mL)): 106.9 ± 9.2%
surviving fraction (DU-145 [7]; Du-145, 6h + 24h, dil. 100x (stocks: diclofenac 0.918, PTA 0.483, AgNO3 0.326 mg/mL)): 78.4 ± 11.8%
surviving fraction (DU-145 [7]; Du-145, 6h + 24h, dil. 1000x (stocks: diclofenac 0.918, PTA 0.483, AgNO3 0.326 mg/mL)): 89.3 ± 8.8%
surviving fraction (DU-145 [7]; Du-145, 24h + 24h, dil. 10 000x (stocks: diclofenac 0.918, PTA 0.483, AgNO3 0.326 mg/mL)): 99.2 ± 7.2%
surviving fraction (DU-145 [7]; Du-145, 24h + 24h, dil. 100x (stocks: diclofenac 0.918, PTA 0.483, AgNO3 0.326 mg/mL)): 73.8 ± 12.6%
surviving fraction (DU-145 [7]; Du-145, 24h + 24h, dil. 1000x (stocks: diclofenac 0.918, PTA 0.483, AgNO3 0.326 mg/mL)): 89.2 ± 5.8%
surviving fraction (DU-145 [7]; Du-145, 72h + 24h, dil. 10 000x (stocks: diclofenac 0.918, PTA 0.483, AgNO3 0.326 mg/mL)): 101.2 ± 12.4%
surviving fraction (DU-145 [7]; Du-145, 72h + 24h, dil. 100x (stocks: diclofenac 0.918, PTA 0.483, AgNO3 0.326 mg/mL)): 62.3 ± 8.7%
surviving fraction (DU-145 [7]; Du-145, 72h + 24h, dil. 1000x (stocks: diclofenac 0.918, PTA 0.483, AgNO3 0.326 mg/mL)): 84.2 ± 8.2%
surviving fraction (A549 [8]; A549, 6h + 24h, dil. 10 000x (stocks: diclofenac 0.918, PTA 0.483, AgNO3 0.326 mg/mL)): 96.8 ± 10.8%
surviving fraction (A549 [8]; A549, 6h + 24h, dil. 100x (stocks: diclofenac 0.918, PTA 0.483, AgNO3 0.326 mg/mL)): 77.5 ± 9.8%
surviving fraction (A549 [8]; A549, 6h + 24h, dil. 1000x (stocks: diclofenac 0.918, PTA 0.483, AgNO3 0.326 mg/mL)): 82.4 ± 12.9%
surviving fraction (A549 [8]; A549, 24h + 24h, dil. 10 000x (stocks: diclofenac 0.918, PTA 0.483, AgNO3 0.326 mg/mL)): 98.6 ± 5.9%
surviving fraction (A549 [8]; A549, 24h + 24h, dil. 100x (stocks: diclofenac 0.918, PTA 0.483, AgNO3 0.326 mg/mL)): 77.2 ± 12.8%
surviving fraction (A549 [8]; A549, 24h + 24h, dil. 1000x (stocks: diclofenac 0.918, PTA 0.483, AgNO3 0.326 mg/mL)): 88.2 ± 8.7%
surviving fraction (A549 [8]; A549, 72h + 24h, dil. 10 000x (stocks: diclofenac 0.918, PTA 0.483, AgNO3 0.326 mg/mL)): 92.7 ± 8.6%
surviving fraction (A549 [8]; A549, 72h + 24h, dil. 100x (stocks: diclofenac 0.918, PTA 0.483, AgNO3 0.326 mg/mL)): 67.3 ± 8.6%
surviving fraction (A549 [8]; A549, 72h + 24h, dil. 1000x (stocks: diclofenac 0.918, PTA 0.483, AgNO3 0.326 mg/mL)): 79.8 ± 7.5%
surviving fraction (PANC-1 [9]; PANC-1, 6h + 24h, dil. 10 000x (stocks: diclofenac 0.918, PTA 0.483, AgNO3 0.326 mg/mL)): 89.7 ± 12.5%
surviving fraction (PANC-1 [9]; PANC-1, 6h + 24h, dil. 100x (stocks: diclofenac 0.918, PTA 0.483, AgNO3 0.326 mg/mL)): 74.7 ± 9.8%
surviving fraction (PANC-1 [9]; PANC-1, 6h + 24h, dil. 1000x (stocks: diclofenac 0.918, PTA 0.483, AgNO3 0.326 mg/mL)): 86.5 ± 6.4%
surviving fraction (PANC-1 [9]; PANC-1, 24h + 24h, dil. 10 000x (stocks: diclofenac 0.918, PTA 0.483, AgNO3 0.326 mg/mL)): 107.5 ± 6.8%
surviving fraction (PANC-1 [9]; PANC-1, 24h + 24h, dil. 100x (stocks: diclofenac 0.918, PTA 0.483, AgNO3 0.326 mg/mL)): 78.7 ± 8.3%
surviving fraction (PANC-1 [9]; PANC-1, 24h + 24h, dil. 1000x (stocks: diclofenac 0.918, PTA 0.483, AgNO3 0.326 mg/mL)): 85.2 ± 9.5%
surviving fraction (PANC-1 [9]; PANC-1, 72h + 24h, dil. 10 000x (stocks: diclofenac 0.918, PTA 0.483, AgNO3 0.326 mg/mL)): 98.9 ± 8.9%
surviving fraction (PANC-1 [9]; PANC-1, 72h + 24h, dil. 100x (stocks: diclofenac 0.918, PTA 0.483, AgNO3 0.326 mg/mL)): 70.8 ± 6.7%
surviving fraction (PANC-1 [9]; PANC-1, 72h + 24h, dil. 1000x (stocks: diclofenac 0.918, PTA 0.483, AgNO3 0.326 mg/mL)): 83.4 ± 5.1%
surviving fraction (MCF-7; MCF-7, 6h + 24h, dil. 10 000x (stocks: diclofenac 0.918, PTA 0.483, AgNO3 0.326 mg/mL)): 88.6 ± 7.5%
surviving fraction (MCF-7; MCF-7, 6h + 24h, dil. 100x (stocks: diclofenac 0.918, PTA 0.483, AgNO3 0.326 mg/mL)): 78.6 ± 13.1%
surviving fraction (MCF-7; MCF-7, 6h + 24h, dil. 1000x (stocks: diclofenac 0.918, PTA 0.483, AgNO3 0.326 mg/mL)): 89.6 ± 4.8%
surviving fraction (MCF-7; MCF-7, 24h + 24h, dil. 10 000x (stocks: diclofenac 0.918, PTA 0.483, AgNO3 0.326 mg/mL)): 100.2 ± 6.6%
surviving fraction (MCF-7; MCF-7, 24h + 24h, dil. 100x (stocks: diclofenac 0.918, PTA 0.483, AgNO3 0.326 mg/mL)): 70.9 ± 8.8%
surviving fraction (MCF-7; MCF-7, 24h + 24h, dil. 1000x (stocks: diclofenac 0.918, PTA 0.483, AgNO3 0.326 mg/mL)): 82.7 ± 11.5%
surviving fraction (MCF-7; MCF-7, 72h + 24h, dil. 10 000x (stocks: diclofenac 0.918, PTA 0.483, AgNO3 0.326 mg/mL)): 102.5 ± 6.0%
surviving fraction (MCF-7; MCF-7, 72h + 24h, dil. 100x (stocks: diclofenac 0.918, PTA 0.483, AgNO3 0.326 mg/mL)): 84.7 ± 8.9%
surviving fraction (MCF-7; MCF-7, 72h + 24h, dil. 1000x (stocks: diclofenac 0.918, PTA 0.483, AgNO3 0.326 mg/mL)): 88.6 ± 7.9%
surviving fraction (HaCat [10]; 6h + 24h, dil. 10 000x (stocks: diclofenac 0.918, PTA 0.483, AgNO3 0.326 mg/mL)): 109.7 ± 6.3%
surviving fraction (HaCat [10]; 6h + 24h, dil. 100x (stocks: diclofenac 0.918, PTA 0.483, AgNO3 0.326 mg/mL)): 99.7 ± 4.9%
surviving fraction (HaCat [10]; 24h + 24h, dil. 10 000x (stocks: diclofenac 0.918, PTA 0.483, AgNO3 0.326 mg/mL)): 98.1 ± 12.1%
surviving fraction (HaCat [10]; 24h + 24h, dil. 100x (stocks: diclofenac 0.918, PTA 0.483, AgNO3 0.326 mg/mL)): 92.2 ± 5.3%
surviving fraction (HaCat [10]; 24h + 24h, dil. 1000x (stocks: diclofenac 0.918, PTA 0.483, AgNO3 0.326 mg/mL)): 96.7 ± 9.7%
surviving fraction (HaCat [10]; 72h + 24h, dil. 10 000x (stocks: diclofenac 0.918, PTA 0.483, AgNO3 0.326 mg/mL)): 100.6 ± 8.1%
surviving fraction (HaCat [10]; 72h + 24h, dil. 100x (stocks: diclofenac 0.918, PTA 0.483, AgNO3 0.326 mg/mL)): 91.2 ± 6.5%
surviving fraction (HaCat [10]; 72h + 24h, dil. 1000x (stocks: diclofenac 0.918, PTA 0.483, AgNO3 0.326 mg/mL)): 98.2 ± 8.4%
degradation of plasmid DNA (pBR322 plasmid): no degradation of DNA
